Source: publication PMC10636063, “Progesterone activation of β1-containing BK channels involves two binding sites” (Nature Communications, 2023)
Several values for one entry are separate records, joined by “and”; a condition that tells them apart may be missing. Identical values can stand only once. Like-named read-outs stand apart in the source and are kept apart here.

Key:
[1] = target: T1, BK β1 subunit (KCNMB1 product) (Rattus norvegicus, UniProt P97678); assay: Thermal unfolding (microscale thermophoresis, Prometheus) of purified wt β1; format: binding
T1 construct: FLAG (DYKDDDDK); made in house; host or cells: CHO cells, transient transfection, anti-flag immunoprecipitation
T1 sequence (P97678 1-191): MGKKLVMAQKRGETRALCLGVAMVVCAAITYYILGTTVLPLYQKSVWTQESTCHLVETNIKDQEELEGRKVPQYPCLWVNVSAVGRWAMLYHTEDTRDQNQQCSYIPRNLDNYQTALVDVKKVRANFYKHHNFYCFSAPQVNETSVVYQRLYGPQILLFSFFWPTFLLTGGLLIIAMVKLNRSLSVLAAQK
Text: BK channel-forming slo1 cDNA (cbv1 isoform; AY330293) was cloned from rat cerebral artery SM cells, and inserted into pcDNA3.1 vector as described. BK β1 cDNA (KCNMB1 product; NP_011452; FJ154955) were isolated from rat cerebral artery SM cells and cloned as described. β4 cDNA (KCNMB4; NP_055320; AY028605) were generously provided by Dr. Ligia Toro. CHO cells were transiently transfected with cbv1 ± β1-, or β4-carrying pcDNA3.1 using X-tremeGENE HP (Sigma-Aldrich). Mutations to β1/4 cDNAs were conducted by Genscript, with sequences being confirmed to be >99% identical to KCNMB1 product; NP_011452 or β4 KCNMB4; NP_055320; respectively. β1/4 and mutant constructs were flag-tagged (DYKDDDDK-tag) by Genscript services for subsequent immunoprecipitation and use in microscale thermophoresis studies.
Wt β1, wt β4 and mutant constructs were purified by immunoprecipitation using Dynabeads Protein G Kit (10007D by Invitrogen) and following the manufacturer’s instructions. Rabbit polyclonal anti-flag antibody (10 µg; Abcam, Cat# ab205606, RRID:AB_2916341) was cross-linked with dynabeads. Transfected CHO cell lysate supernatant was divided into aliquots containing […] per column. Following precipitation, kit instructions for non-denaturing elutions were followed; one elution of 30 µl was collected for each column, and pH was adjusted to 7.5 using UltraPure 1 M Tris-HCI buffer pH 7.5 (cat# 15567027 by Fisher Scientific). PROG stock or vehicle control (DMSO) was added to the eluate to reach PROG final concentrations (0.004-40 µM), all dissolved within the same concentration of DMSO. Glass capillaries were prepared and loaded in triplicates into Prometheus (Nanotemper) and heated from 15° to 95 °C at a rate of 1°/min, the largest thermal scale available to run in the Nanotemper PR.therm-control software. The unfolding profile of a protein is a plot of its fluorescence signal against temperature. The protein is heated at a defined ramp over a specified temperature range. During the heating process, fluorescence is recorded at 330 and 350 nm. The resulting fluorescence ratio change is then analyzed for onset and inflection points. The temperature of onset and inflection is determined using built-in analysis function in Nanotemper PR.therm-control software. The onset of unfolding or aggregation is the temperature at which the channel conformation (unfolding or aggregation) process first starts. […] Onset and inflection points were validated by comparing the first-derivative variations between technical triplicates (high degrees of variations in the first derivative are shown in Supplementary Fig. 1b, c). CRC data obtained from microscale thermophoresis experiments were fitted to a Boltzmann function of the type: y=A1−A2/1+e^x−x0+A2 using Origin 2020 software (OriginLab; OriginLab Corporation).

[2] = test system: de-endothelialized, pressurized MCA segments (C57BL/6); assay: Cerebral artery diameter in vitro, de-endothelialized pressurized MCA segments; set-up: species or system mouse
Text: Eight-12 week-old C57BL/6J and KCNMB1^−/− on C57BL/6 background mice of both sexes were deeply anesthetized with isoflurane via inhalation in a tightly sealed jar. Resistance size MCAs (~100 μm in external diameter) were dissected out of the mouse brains after animal euthanasia with sharp scissors. For de-endothelialized records, the endothelium was removed by passing an air bubble into the vessel lumen for 90 s[30]. This method has been consistently used by our group and validated using endothelium-dependent versus endothelium-independent vasodilators[16],[26]. Arteries were cannulated as previously described by our group[26],[40]. MCAs were cut into 5 to 10 mm-long segments under a microscope (Nikon SMZ645). The segment was cannulated at each end, and the artery exterior was continuously perfused with physiologic sodium saline (PSS) of the following composition (mM): 119 NaCl, 4.7 KCl, 1.2 KH2PO4, 1.6 CaCl2, 1.2 MgSO4, 0.023 EDTA, 11 glucose, 24 NaHCO3, pH=7.4. PSS was continuously bubbled with an O2/CO2/N2 (21/5/74%) gas mixture and maintained at 35–37 °C. The artery external wall diameter was measured using the automatic edge-detection function of lonWizard software (lonOptix) via Sanyo VCB-3512T camera (Sanyo Electric Co.). Arteries were first incubated at an intravascular pressure of 10 mm Hg for 10 min. Then intravascular pressure was increased to 60 mmHg and held steady throughout the experiment to induce myogenic tone development and maintenance[19],[30],[51]. Each artery segment was exposed to PROG, PROG-oxime (in presence and absence of 1 µM paxilline) only once to avoid development of desensitization during repeated applications of PROG-containing solution. To determine arterial viability, arterial contractility was probed with a high KCl solution at the end of each experiment. The high KCl solution was composed of the following composition (mM): 63.7 NaCl, 60 KCl, 1.2 KH2PO4, 1.2 MgSO4, 0.023 EDTA, 11 glucose, 24 NaHCO3, 1.6 CaCl2, pH=7.4. Like PSS, the high-KCl solution was continuously bubbled with O2/CO2/N2 (21/5/74%) gas mixture and maintained at 35–37 °C.

[3] = test system: pial arteries branching out of the MCA (C57BL/6J); assay: Cerebral artery diameter through cranial window in vivo; set-up: species or system mouse
Description: Eight-12 week-old male and female C57BL/6J mice were anesthetized with a mixture of xylazine/ketamine (12/100 mg per kg) and kept anesthetized for the duration of the experiment with subsequent ketamine doses (50 mg/kg of weight) as needed. A catheter was inserted into the carotid artery so that the infusion went straight to the brain rather than towards the thoracic cavity. An area of the skull was cleared of tissue and thinned to expose the branching arteries originating from the MCA on the side the catheter was inserted, above the zygomatic arch, between the ear and eye of the skull[19],[34]. The exposed arteries branching out from the MCA were monitored using a Leica MC170 HD microscope with a mounted camera (Leica M125 C) connected to a computer monitor. Drugs were diluted to their final concentration in sodium saline (0.9% NaCl) and administered via catheter at 0.1 ml/25 g of weight. Cranial window images before and after drug administration were acquired every 60 seconds for subsequent analysis.

[4] = Δ onset to inflection vs concentration

CC(=O)[C@H]1CC[C@H]2[C@@H]3CCC4=CC(=O)CC[C@]4(C)[C@H]3CC[C@]12C [PROG, Progesterone]
concentrations optimal to bind β1 as determined by MST [1]: 4 to 10 µM | delta (Δ) of onset to inflection point ([1]; 0.004 µM PROG, individual records (Fig 1B)): 5.26 and 13.2518 and 6.093 and 5.155 and 14.4223 and 5.701 and 4.973 and 10.2833 and 5.781 and 6.3298 and 7.116 | delta (Δ) of onset to inflection point ([1]; 0.04 µM PROG, individual records (Fig 1B)): 5.943 and 2.008 and 8.93 and 4.708 and 3.29 and 2.039 and 5.415 and 2.123 and 6.078 and 9.405 and 14.8911 and 5.538 | delta (Δ) of onset to inflection point ([1]; 0.4 µM PROG, individual records (Fig 1B)): 3.821 and 6.41 and 2.29 and 0.9082 and 1.393 and 3.976 and 4.647 and 6.669 and 3.779 and 6.772 | delta (Δ) of onset to inflection point ([1]; 1.3 µM PROG, individual records (Fig 1B)): 10.9265 and 4.989 and 3.478 and 3.054 and 2.195 and 4.0816 | delta (Δ) of onset to inflection point ([1]; 4 µM PROG, individual records (Fig 1B)): 4.355 and 17.5013 and 19.981 and 4.864 and 5.088 and 8.156 and 15.523 and 3.088 and 7.882 and 12.3542 and 0.9184 and 8.919 and 6.947 and 9.668 | delta (Δ) of onset to inflection point ([1]; 10 µM PROG, individual records (Fig 1B)): 12.73 and 36.72 and 4.56 and 4.587 and 4.664 and 11.45 and 5.307 and 5.645 and 4.368 and 3.818 | delta (Δ) of onset to inflection point ([1]; 10 μM PROG, individual records (Fig 1C, SFig1A)): 9.668 and 4.355 and 17.5013 and 19.981 and 4.864 and 5.088 and 8.156 and 15.523 and 3.088 and 7.882 and 12.3542 and 0.9184 and 8.919 and 6.947 | delta (Δ) of onset to inflection point ([1]; 40 µM PROG, individual records (Fig 1B)): 6.851 and 14.1513 and 13.0079 and 8.574 and 9.969 and 3.1593 and 5.59 and 5.656 | effect on thermal unfolding / binding ([1]; vs DMSO): decreases the difference in delta between the onset inflection events | high-affinity binding process: concentration at maximum [1, 4]: 0.4 to 1 µM | low-affinity binding process: concentration at maximum [1, 4]: 10 µM | EC50 ([1]; Δ onset to inflection vs concentration, read-out: high-affinity binding process: 50% value): 40 nM | EC50 ([1]; Δ onset to inflection vs concentration, read-out: low-affinity binding process: 50% value): ~2200 nM | vasoactive response of MCA segments ([2]; 10 μM in the presence of 1 μM paxilline): lost | vasoactive response of MCA segments ([2]; 10 μM, male and female mice): dilated MCA segments | percent changes in MCA diameter ([2]; male mice, 10 μM PROG, individual arterial segments): 4.2471% and 1.678% and 1.882% and 1.946% and 2.105% and 8.38% and 2.776% and 5.128% and 1.929% and 4.348% | in vivo action on MCA branches ([3]; 10 μM infused via carotid artery, both sexes): vasodilation | artery diameter, normalized to time 0 ([3]; Fig 7C, time 4, individual replicates, male mice): 1.09 (2×) and 1.035 and 1.058 and 0.9438 | artery diameter, normalized to time 0 ([3]; Fig 7C, time 5, individual replicates, male mice): 1.016 and 1.1 and 0.9912 and 1.082 and 0.9491 | artery diameter, normalized to time 0 ([3]; Fig 7C, time 6, individual replicates, male mice): 1.051 and 1.116 and 1.012 and 1.08 and 1.037 | artery diameter, normalized to time 0 ([3]; Fig 7C, time 7, individual replicates, male mice): 1.112 and 1.049 and 1.05 and 1.107 and 1.058 | artery diameter, normalized to time 0 ([3]; Fig 7C, time 8, individual replicates, male mice): 1.011 and 1.1193 and 1.034 and 1.1 and 1.095 | artery diameter, normalized to time 0 ([3]; Fig 7C, time 9, individual replicates, male mice): 1.079 and 1.105 and 1.031 and 1.086 and 1.089 | artery diameter, normalized to time 0 ([3]; Fig 7C, time 10, individual replicates, male mice): 1.09 and 1.053 and 0.9685 and 1.068 and 1.048 | artery diameter, normalized to time 0 ([3]; Fig 7C, time 11, individual replicates, male mice): 1.108 and 1.043 and 1.018 and 1.059 and 1.07 | artery diameter, normalized to time 0 ([3]; Fig 7C, time 12, individual replicates, male mice): 0.9973 and 1.002 and 1.105 and 1.107 and 1.084 | artery diameter, normalized to time 0 ([3]; Fig 7C, time 13, individual replicates, male mice): 1.13 and 1.0049 and 1.077 and 1.135 and 1.0321 | artery diameter, normalized to time 0 ([3]; Fig 7D, time 4, individual replicates, female mice): 1.137 and 1.058 and 0.95 and 1.071 and 1.184 | artery diameter, normalized to time 0 ([3]; Fig 7D, time 5, individual replicates, female mice): 0.9598 and 1.079 and 0.97 and 0.997 and 1.229 | artery diameter, normalized to time 0 ([3]; Fig 7D, time 6, individual replicates, female mice): 1.069 and 1.14 and 1.01 and 1.116 and 1.159 | artery diameter, normalized to time 0 ([3]; Fig 7D, time 7, individual replicates, female mice): 1.131 and 1.157 and 1.04 and 1.012 and 1.149 | artery diameter, normalized to time 0 ([3]; Fig 7D, time 8, individual replicates, female mice): 1.128 and 1.058 and 1.05 and 1.074 and 1.104 | artery diameter, normalized to time 0 ([3]; Fig 7D, time 9, individual replicates, female mice): 1.1 and 1.083 and 1.05 and 1.009 and 1.17 | artery diameter, normalized to time 0 ([3]; Fig 7D, time 10, individual replicates, female mice): 1.137 and 1.135 and 1.10 and 1.112 and 1.096 | artery diameter, normalized to time 0 ([3]; Fig 7D, time 11, individual replicates, female mice): 1.0383 and 1.014 and 1.12 and 1.119 and 1.133 | artery diameter, normalized to time 0 ([3]; Fig 7D, time 12, individual replicates, female mice): 1.097 and 0.9908 and 1.08 and 1.129 and 1.16 | artery diameter, normalized to time 0 ([3]; Fig 7D, time 13, individual replicates, female mice): 1.0971 and 1.058 and 1.25 and 1.0807 and 1.024 | artery diameter, normalized (PROG vs oxime comparison) ([3]; Fig 7F, same values as Fig 7D time 7, individual replicates, female mice): 1.043
